Data as given in PMC4774911, “Biochemical Screening of Five Protein Kinases from Plasmodium falciparum against 14,000 Cell-Active Compounds” (PLoS ONE, 2016).

Columns and labels:
P. falciparum 3D7 cells = conditions: 3D7; ref downloaded from ChEMBL; cited from earlier work
3D7 PFLDH = tested on: 3D7 PFLDH; set-up: method as in downloaded from ChEMBL; conditions: ref downloaded from ChEMBL; cited from earlier work
[1] = target: T1, Plasmodium falciparum protein kinase 6 (PK6) (Plasmodium falciparum, UniProt Q8IDW1); test: biochemical; conditions: hits below 1 uM; read-out: PK6 IC50
T1 construct: 6-Histidine (N); made in house
T1 sequence (Q8IDW1 1-305): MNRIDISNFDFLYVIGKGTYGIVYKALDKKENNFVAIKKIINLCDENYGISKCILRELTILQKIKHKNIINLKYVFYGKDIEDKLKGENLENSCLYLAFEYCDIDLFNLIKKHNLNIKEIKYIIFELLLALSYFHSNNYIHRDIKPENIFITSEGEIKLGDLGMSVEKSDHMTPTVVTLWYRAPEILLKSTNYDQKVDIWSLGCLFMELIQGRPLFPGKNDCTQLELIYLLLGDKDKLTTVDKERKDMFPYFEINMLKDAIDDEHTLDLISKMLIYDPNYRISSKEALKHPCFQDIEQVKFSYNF

HepG2 cells = conditions: HEPG2; ref downloaded from ChEMBL; cited from earlier work
DD2 = tested on: DD2; set-up: method as in downloaded from ChEMBL; conditions: ref downloaded from ChEMBL; cited from earlier work
[2] = target: T2, Plasmodium falciparum calcium-dependent protein kinase 1 (CDPK1) (Plasmodium falciparum, UniProt P62344); test: CDPK1 Kinase-Glo ATP-consumption screen and dose-response; type: biochemical; conditions: hits below 1 uM; read-out: CDPK1 IC50
T2 construct: 6-Histidine (N); made in house
In short: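 ATP consumption by recombinant P. falciparum CDPK4 or CDPK1 measured as residual ATP by Kinase-Glo luminescence, with 40 μM Syntide-2 substrate and 90 min incubation stopped with 5 mM EGTA. Single-point screen at 1 μM final, followed by dose-response; no-substrate wells as negative control.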

T2 sequence (P62344 whole entry): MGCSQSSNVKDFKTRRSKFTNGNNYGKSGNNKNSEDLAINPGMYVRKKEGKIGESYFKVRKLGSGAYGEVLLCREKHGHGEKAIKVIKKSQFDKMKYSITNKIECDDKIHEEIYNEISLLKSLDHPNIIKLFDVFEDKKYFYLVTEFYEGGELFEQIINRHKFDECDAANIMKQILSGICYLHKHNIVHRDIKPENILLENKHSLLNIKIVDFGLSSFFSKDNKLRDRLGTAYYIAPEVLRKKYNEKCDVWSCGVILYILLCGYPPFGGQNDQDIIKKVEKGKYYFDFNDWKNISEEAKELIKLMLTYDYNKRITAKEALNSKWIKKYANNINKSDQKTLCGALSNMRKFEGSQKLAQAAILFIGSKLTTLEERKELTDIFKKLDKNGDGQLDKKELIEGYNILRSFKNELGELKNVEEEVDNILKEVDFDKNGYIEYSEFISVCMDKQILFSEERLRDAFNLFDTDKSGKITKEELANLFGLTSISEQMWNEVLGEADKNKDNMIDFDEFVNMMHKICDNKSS

Compound | PCT_IHB_3D7 (P. falciparum 3D7 cells) | pXC50_3D7 (P. falciparum 3D7 cells) | PCT_INHIB_3D7_PFLDH (3D7 PFLDH) | IC50 [1] [nM] | PCT_INHIB_HEPG2 (HepG2 cells) | PCT_INHB_DD2 (DD2) | IC50 [2] [nM]
Cn1cc(-c2ccnc3[nH]c(-c4cccc(CNC5CCC(O)CC5)c4)cc23)cn1.O=C(O)C(F)(F)F (stereo not drawn) [TCMDC-133805] | 95 | 6.044 | 2 | 177 | 48 | 82 | 46
COc1ccc(-c2cnn3ccc(Nc4cc(OC)c(OC)c(OC)c4)nc23)cc1OC [TCMDC-134383] | 98 | 6.187 | 0 |  | 57 | 100 | 157
CN1CCN(Cc2ccc(-c3ccc4c(Nc5cc(O)c(Cl)cc5F)ccnc4c3)o2)CC1 [TCMDC-138446] | 100 | 6.961 | 0 |  | 2 | 99 | 131
CN(C)Cc1cccc(-c2cc3c(-c4cnn(C)c4)c(Cl)cnc3[nH]2)c1 [TCMDC-134147] | 96 | 6.043 | 0 | 128 | 75 | 21 | 402
CS(=O)(=O)Nc1cccc(-c2cnc3[nH]cc(-c4ccc(CN)cc4)c3c2)c1 [TCMDC-136218] | 98 | 6.0063 | 2 |  | 27 | 95 | 552
CN(C)CCNCc1nc(-c2ccc3c(Nc4ccc(Oc5ccccc5)cc4)ccnc3c2)cs1 [TCMDC-138410] | 100 | 6.1332 | 6 |  | 8 | 100 | 887
COCCNCc1cccc(-c2ccc3c(Nc4cc(O)c(Cl)cc4F)ccnc3c2)c1 [TCMDC-138429] | 100 | 6.944 | 7 |  | 0 | 79 | 436
CN(C)CCN(C)Cc1ccc(-c2ccc3c(Nc4ccc(Cl)cc4F)ccnc3c2)o1 [TCMDC-138388] | 100 | 6.444 | 1 |  | 20 | 76 | 604
CS(=O)(=O)c1cccc(-c2cnc3[nH]cc(-c4cccc(CCN)c4)c3c2)c1.O=C(O)C(F)(F)F [TCMDC-136307] | 99 | 5.808 | 0 |  | 0 | 74 | 44
NCCNC(=O)c1ccc(-c2cnc3[nH]cc(-c4ccc(C(N)=O)cc4)c3c2)cc1 [TCMDC-132359] | 99 | 6.7676 | 0 | 931 | 2 | 98 | 24
CS(=O)(=O)CCNCc1cccc(-c2ccc3c(Nc4cc(O)c(Cl)cc4F)ccnc3c2)c1 [TCMDC-138435] | 100 | 6.595 | 0 |  | 9 | 100 | 71
CN(C)CCNCc1ccc(-c2ccc3c(Nc4ccc(Cl)cc4F)ccnc3c2)o1 [TCMDC-138391] | 99 | 6.681 | 0 |  | 14 | 100 | 374
Cc1nc(-c2cccc(Nc3ccnc4cc(-c5nccs5)ccc34)c2)no1.Cl [TCMDC-138334] | 99 | 6.492 | 0 |  | 37 | 90 | 191
Cc1nnc(-c2cccc(Nc3ccnc4cc(-c5nccs5)ccc34)c2)o1.Cl [TCMDC-138335] | 95 | 6.199 | 0 |  | 38 | 89 | 186
